Source: US10485235B2, “Aryloxypyrimidinyl ethers as herbicides” (FMC Corporation, priority 2015, dated 2019)

What follows are compounds tested on barnyardgrass (Echinochloa crus-galli) (assay: Test A preemergence, barnyardgrass). Conditions: Preemergence, 125 g ai/ha; 0 to 100 scale (0 no effect, 100 complete control).
Type: in vivo
Summary of the method: (§1)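 Visual injury rating versus untreated controls on a 0 to 100 scale (0 = no effect, 100 = complete control), taken about 10 days after treatment in the greenhouse. Preemergence: directed soil spray over seeded loam–sand. Postemergence: spray on one- to two-leaf plants, 2 to 10 cm tall.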

SMILES	Plant response rating, Barnyardgrass
CC(C)CCOc1c(Br)cccc1Oc1ncc(Cl)cn1 [Compound 12]	70

Same assay, conditions: Preemergence, 500 g ai/ha; 0 to 100 scale (0 no effect, 100 complete control)

SMILES	Plant response rating, Barnyardgrass
CC(C)CCOc1c(Br)cccc1Oc1ncc(Cl)cn1 [Compound 12]	100

Each compound was assayed on kochia (Kochia scoparia) (assay: Test A preemergence, kochia). Conditions: Preemergence, 125 g ai/ha; 0 to 100 scale (0 no effect, 100 complete control).
Type: in vivo
Summary of the method: as §1

SMILES	Plant response rating, Kochia
CC(C)CCOc1c(Br)cccc1Oc1ncc(Cl)cn1 [Compound 12]	0

Same assay, conditions: Preemergence, 500 g ai/ha; 0 to 100 scale (0 no effect, 100 complete control)

SMILES	Plant response rating, Kochia
CC(C)CCOc1c(Br)cccc1Oc1ncc(Cl)cn1 [Compound 12]	70

What follows are compounds tested on ragweed (common ragweed, Ambrosia elatior) (assay: Test A preemergence, ragweed). Conditions: Preemergence, 125 g ai/ha; 0 to 100 scale (0 no effect, 100 complete control).
Type: in vivo
Summary of the method: as §1

SMILES	Plant response rating, Ragweed
CC(C)CCOc1c(Br)cccc1Oc1ncc(Cl)cn1 [Compound 12]	0

Same assay, conditions: Preemergence, 500 g ai/ha; 0 to 100 scale (0 no effect, 100 complete control)

SMILES	Plant response rating, Ragweed
CC(C)CCOc1c(Br)cccc1Oc1ncc(Cl)cn1 [Compound 12]	0

The compounds below were run on ryegrass, Italian (Italian ryegrass, Lolium multiflorum) (assay: Test A preemergence, Italian ryegrass). Conditions: Preemergence, 125 g ai/ha; 0 to 100 scale (0 no effect, 100 complete control).
Type: in vivo
Summary of the method: as §1

SMILES	Plant response rating, Ryegrass, Italian
CC(C)CCOc1c(Br)cccc1Oc1ncc(Cl)cn1 [Compound 12]	0

Same assay, conditions: Preemergence, 500 g ai/ha; 0 to 100 scale (0 no effect, 100 complete control)

SMILES	Plant response rating, Ryegrass, Italian
CC(C)CCOc1c(Br)cccc1Oc1ncc(Cl)cn1 [Compound 12]	40

These compounds were tested on foxtail, giant (giant foxtail, Setaria faberii) (assay: Test A preemergence, giant foxtail). Conditions: Preemergence, 125 g ai/ha; 0 to 100 scale (0 no effect, 100 complete control).
Type: in vivo
Summary of the method: as §1

SMILES	Plant response rating, Foxtail, Giant
CC(C)CCOc1c(Br)cccc1Oc1ncc(Cl)cn1 [Compound 12]	90

Same assay, conditions: Preemergence, 500 g ai/ha; 0 to 100 scale (0 no effect, 100 complete control)

SMILES	Plant response rating, Foxtail, Giant
CC(C)CCOc1c(Br)cccc1Oc1ncc(Cl)cn1 [Compound 12]	100

These compounds were tested on pigweed (Amaranthus retroflexus) (assay: Test A preemergence, pigweed). Conditions: Preemergence, 125 g ai/ha; 0 to 100 scale (0 no effect, 100 complete control).
Type: in vivo
Summary of the method: as §1

SMILES	Plant response rating, Pigweed
CC(C)CCOc1c(Br)cccc1Oc1ncc(Cl)cn1 [Compound 12]	40

Same assay, conditions: Preemergence, 500 g ai/ha; 0 to 100 scale (0 no effect, 100 complete control)

SMILES	Plant response rating, Pigweed
CC(C)CCOc1c(Br)cccc1Oc1ncc(Cl)cn1 [Compound 12]	100

What follows are compounds tested on barnyardgrass (Echinochloa crus-galli) (assay: Test A postemergence, barnyardgrass). Conditions: 125 g ai/ha, postemergence; 0 to 100 scale, 0 is no effect, 100 is complete control; approximately 10 days.
Type: in vivo
Summary of the method: as §1

SMILES	Plant response rating, Barnyardgrass
CC(C)CCOc1c(Br)cccc1Oc1ncc(Cl)cn1 [Compound 12]	10

Same assay, conditions: 500 g ai/ha, postemergence; 0 to 100 scale, 0 is no effect, 100 is complete control; approximately 10 days

SMILES	Plant response rating, Barnyardgrass
CC(C)CCOc1c(Br)cccc1Oc1ncc(Cl)cn1 [Compound 12]	100

What follows are compounds tested on kochia (Kochia scoparia) (assay: Test A postemergence, kochia). Conditions: 125 g ai/ha, postemergence; 0 to 100 scale, 0 is no effect, 100 is complete control; approximately 10 days.
Type: in vivo
Summary of the method: as §1

SMILES	Plant response rating, Kochia
CC(C)CCOc1c(Br)cccc1Oc1ncc(Cl)cn1 [Compound 12]	90

Same assay, conditions: 500 g ai/ha, postemergence; 0 to 100 scale, 0 is no effect, 100 is complete control; approximately 10 days

SMILES	Plant response rating, Kochia
CC(C)CCOc1c(Br)cccc1Oc1ncc(Cl)cn1 [Compound 12]	100

The compounds below were run on ragweed (common ragweed, Ambrosia elatior) (assay: Test A postemergence, ragweed). Conditions: 125 g ai/ha, postemergence; 0 to 100 scale, 0 is no effect, 100 is complete control; approximately 10 days.
Type: in vivo
Summary of the method: as §1

SMILES	Plant response rating, Ragweed
CC(C)CCOc1c(Br)cccc1Oc1ncc(Cl)cn1 [Compound 12]	10

Same assay, conditions: 500 g ai/ha, postemergence; 0 to 100 scale, 0 is no effect, 100 is complete control; approximately 10 days

SMILES	Plant response rating, Ragweed
CC(C)CCOc1c(Br)cccc1Oc1ncc(Cl)cn1 [Compound 12]	20

What follows are compounds tested on ryegrass, Italian (Italian ryegrass, Lolium multiflorum) (assay: Test A postemergence, Italian ryegrass). Conditions: 125 g ai/ha, postemergence; 0 to 100 scale, 0 is no effect, 100 is complete control; approximately 10 days.
Type: in vivo
Summary of the method: as §1

SMILES	Plant response rating, Ryegrass, Italian
CC(C)CCOc1c(Br)cccc1Oc1ncc(Cl)cn1 [Compound 12]	0

Same assay, conditions: 500 g ai/ha, postemergence; 0 to 100 scale, 0 is no effect, 100 is complete control; approximately 10 days

SMILES	Plant response rating, Ryegrass, Italian
CC(C)CCOc1c(Br)cccc1Oc1ncc(Cl)cn1 [Compound 12]	30

Each compound was assayed on foxtail, giant (giant foxtail, Setaria faberii) (assay: Test A postemergence, giant foxtail). Conditions: 125 g ai/ha, postemergence; 0 to 100 scale, 0 is no effect, 100 is complete control; approximately 10 days.
Type: in vivo
Summary of the method: as §1

SMILES	Plant response rating, Foxtail, Giant
CC(C)CCOc1c(Br)cccc1Oc1ncc(Cl)cn1 [Compound 12]	10

Same assay, conditions: 500 g ai/ha, postemergence; 0 to 100 scale, 0 is no effect, 100 is complete control; approximately 10 days

SMILES	Plant response rating, Foxtail, Giant
CC(C)CCOc1c(Br)cccc1Oc1ncc(Cl)cn1 [Compound 12]	100

What follows are compounds tested on pigweed (Amaranthus retroflexus) (assay: Test A postemergence, pigweed). Conditions: 125 g ai/ha, postemergence; 0 to 100 scale, 0 is no effect, 100 is complete control; approximately 10 days.
Type: in vivo
Summary of the method: as §1

SMILES	Plant response rating, Pigweed
CC(C)CCOc1c(Br)cccc1Oc1ncc(Cl)cn1 [Compound 12]	70

Same assay, conditions: 500 g ai/ha, postemergence; 0 to 100 scale, 0 is no effect, 100 is complete control; approximately 10 days

SMILES	Plant response rating, Pigweed
CC(C)CCOc1c(Br)cccc1Oc1ncc(Cl)cn1 [Compound 12]	100

The compounds below were run on wheat (Triticum aestivum) (assay: Test A postemergence, wheat). Conditions: 125 g ai/ha, postemergence; 0 to 100 scale, 0 is no effect, 100 is complete control; approximately 10 days.
Type: in vivo
Summary of the method: as §1

SMILES	Plant response rating, Wheat
CC(C)CCOc1c(Br)cccc1Oc1ncc(Cl)cn1 [Compound 12]	0

Same assay, conditions: 500 g ai/ha, postemergence; 0 to 100 scale, 0 is no effect, 100 is complete control; approximately 10 days

SMILES	Plant response rating, Wheat
CC(C)CCOc1c(Br)cccc1Oc1ncc(Cl)cn1 [Compound 12]	20

What follows are compounds tested on corn (Zea mays) (assay: Test A postemergence, corn). Conditions: 125 g ai/ha, postemergence; 0 to 100 scale, 0 is no effect, 100 is complete control; approximately 10 days.
Type: in vivo
Summary of the method: as §1

SMILES	Plant response rating, Corn
CC(C)CCOc1c(Br)cccc1Oc1ncc(Cl)cn1 [Compound 12]	30

Same assay, conditions: 500 g ai/ha, postemergence; 0 to 100 scale, 0 is no effect, 100 is complete control; approximately 10 days

SMILES	Plant response rating, Corn
CC(C)CCOc1c(Br)cccc1Oc1ncc(Cl)cn1 [Compound 12]	30

These compounds were tested on blackgrass (Alopecurus myosuroides) (assay: Test A postemergence, blackgrass). Conditions: 125 g ai/ha, postemergence; 0 to 100 scale, 0 is no effect, 100 is complete control; approximately 10 days.
Type: in vivo
Summary of the method: as §1

SMILES	Plant response rating, Blackgrass
CC(C)CCOc1c(Br)cccc1Oc1ncc(Cl)cn1 [Compound 12]	20

Same assay, conditions: 500 g ai/ha, postemergence; 0 to 100 scale, 0 is no effect, 100 is complete control; approximately 10 days

SMILES	Plant response rating, Blackgrass
CC(C)CCOc1c(Br)cccc1Oc1ncc(Cl)cn1 [Compound 12]	60

The compounds below were run on galium (catchweed bedstraw, Galium aparine) (assay: Test A postemergence, galium). Conditions: 125 g ai/ha, postemergence; 0 to 100 scale, 0 is no effect, 100 is complete control; approximately 10 days.
Type: in vivo
Summary of the method: as §1

SMILES	Plant response rating, Galium
CC(C)CCOc1c(Br)cccc1Oc1ncc(Cl)cn1 [Compound 12]	70

Same assay, conditions: 500 g ai/ha, postemergence; 0 to 100 scale, 0 is no effect, 100 is complete control; approximately 10 days

SMILES	Plant response rating, Galium
CC(C)CCOc1c(Br)cccc1Oc1ncc(Cl)cn1 [Compound 12]	100

These compounds were tested on rice (Oryza sativa) (assay: Test B flooded paddy test, rice). Conditions: 250 g ai/ha, Flood; visual rating after 13 to 15 days; scale 0 to 100, 0 is no effect, 100 is complete control.
Type: in vivo
Summary of the method: (§2)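 Plants grown to the 2-leaf stage; pots flooded to 3 cm above soil and compounds applied directly into the paddy water, depth held throughout. After 13 to 15 days in the greenhouse, injury was rated visually against untreated controls on a 0–100 scale (0 no effect, 100 complete control).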

SMILES	Plant response rating, Rice
CC(C)CCOc1c(Br)cccc1Oc1ncc(Cl)cn1 [Compound 12]	0

Each compound was assayed on sedge, umbrella (small-flower umbrella sedge, Cyperus difformis) (assay: Test B flooded paddy test, umbrella sedge). Conditions: 250 g ai/ha, Flood; visual rating after 13 to 15 days; scale 0 to 100, 0 is no effect, 100 is complete control.
Type: in vivo
Summary of the method: as §2

SMILES	Plant response rating, Sedge, Umbrella
CC(C)CCOc1c(Br)cccc1Oc1ncc(Cl)cn1 [Compound 12]	0

These compounds were tested on ducksalad (Heteranthera limosa) (assay: Test B flooded paddy test, ducksalad). Conditions: 250 g ai/ha, Flood; visual rating after 13 to 15 days; scale 0 to 100, 0 is no effect, 100 is complete control.
Type: in vivo
Summary of the method: as §2

SMILES	Plant response rating, Ducksalad
CC(C)CCOc1c(Br)cccc1Oc1ncc(Cl)cn1 [Compound 12]	0

Each compound was assayed on barnyardgrass (Echinochloa crus-galli) (assay: Test B flooded paddy test, barnyardgrass). Conditions: 250 g ai/ha, Flood; visual rating after 13 to 15 days; scale 0 to 100, 0 is no effect, 100 is complete control.
Type: in vivo
Summary of the method: as §2

SMILES	Plant response rating, Barnyardgrass
CC(C)CCOc1c(Br)cccc1Oc1ncc(Cl)cn1 [Compound 12]	0
